# From publication PMC6688508 (Journal of medicinal chemistry, 2019)
# “Also recorded” adds a separate entry of the source.
# Key:
# [1] = target: T1, human D1 (Homo sapiens, UniProt P21728); assay: BRET β-arrestin2 recruitment assay; settings: for β-arrestin2 recruitment activity in words: D1R BRET assay
# [2] = target: T1, human D1; assay: D1R GS-mediated GS-cAMP accumulation assay; settings: for GS-cAMP accumulation activity in words: D1R GloSensor assay; for fold reduced potency in the GS-cAMP accumulation assay compared to 1: compared to compound 1
# T1 sequence (P21728 whole entry): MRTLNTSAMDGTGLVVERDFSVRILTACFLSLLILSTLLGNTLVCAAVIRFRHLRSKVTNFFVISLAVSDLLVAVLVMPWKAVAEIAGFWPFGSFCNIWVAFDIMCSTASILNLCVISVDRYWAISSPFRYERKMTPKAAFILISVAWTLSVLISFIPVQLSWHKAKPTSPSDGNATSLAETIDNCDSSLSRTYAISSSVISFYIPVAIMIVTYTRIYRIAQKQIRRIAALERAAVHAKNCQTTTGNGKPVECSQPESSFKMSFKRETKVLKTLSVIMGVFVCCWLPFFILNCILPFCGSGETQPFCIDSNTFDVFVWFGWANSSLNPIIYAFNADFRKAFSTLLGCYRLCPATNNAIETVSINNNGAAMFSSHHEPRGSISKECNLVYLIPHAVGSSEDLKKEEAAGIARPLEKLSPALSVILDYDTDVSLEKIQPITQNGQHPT
Structure (SMILES),β-arrestin2 recruitment activity in words [1],further results
"FC(F)(F)c1cc(Oc2nccc3ccccc23)ccc1-c1cccc2nccn12 [Compound 45, 1-(4-(Imidazo[1,2-a]pyridin-5-yl)-3-(trifluoromethyl)phenoxy)-isoquinoline]",β-arrestin2 recruitment still eliminated,–
"Cc1cc(Oc2nccn3ccnc23)ccc1-c1c(C)ncc2nccn12 [Compound 31, 5-(4-(Imidazo[1,2-a]pyrazin-8-yloxy)-2-methylphenyl)-6-methylimidazo[1,2-a]pyrazine]",β-arrestin2 recruitment was undetectable,–
"FC(F)(F)c1cc(Oc2nccn3cccc23)ccc1-c1cccc2nccn12 [Compound 47, 5-(4-(Pyrrolo[1,2-a]pyrazin-1-yloxy)-2-(trifluoromethyl)phenyl)-imidazo[1,2-a]pyridine]",completely abrogated,–
"Cc1cc(Oc2nccc3[nH]ncc23)ccc1-c1c(C)ncc2nccn12 [Compound 32, 4-(3-Methyl-4-(6-methylimidazo[1,2-a]pyrazin-5-yl)phenoxy)-1H-pyrazolo[4,3-c]pyridine]",not recovered,–
"Cc1cc(Oc2ncccc2Br)ccc1-c1c(C)ncc2nccn12 [Compound 34, 5-(4-((3-bromopyridin-2-yl)oxy)-2-methylphenyl)-6-methylimidazo[1,2-a]pyrazine]",completely inactive in both pathways,GS-cAMP accumulation activity in words [2]: completely inactive in both pathways
"CCOc1ncnc(C)c1-c1ccc(Oc2nccc3occc23)cc1C [Compound 8, 4-(4-(4-Ethoxy-6-methylpyrimidin-5-yl)-3-methylphenoxy)furo-[3,2-c]pyridine]",not active in the β-arrestin2 recruitment assay,–
"Cc1cc(Oc2nccc3occc23)cc(C)c1-c1cccc2nccn12 [Compound 39, 4-(4-(Imidazo[1,2-a]pyridin-5-yl)-3,5-dimethylphenoxy)furo[3,2-c]pyridine]",completely inactive,GS-cAMP accumulation activity in words [2]: completely inactive
"FC(F)(F)c1cc(-c2cccc3nccn23)ccc1Oc1nccc2occc12 [Compound 42, 4-(4-(Imidazo[1,2-a]pyridin-5-yl)-2-(trifluoromethyl)phenoxy)-furo[3,2-c]pyridine]",inactive in both G protein and β-arrestin2 recruitment assays,GS-cAMP accumulation activity in words [2]: inactive in both G protein and β-arrestin2 recruitment assays
"COc1ccc(-c2ccc(Oc3nccc4occc34)cc2C)c(C)n1 [Compound 11, 4-(4-(6-Methoxy-2-methylpyridin-3-yl)-3-methylphenoxy)furo-[3,2-c]pyridine]",inactive in the β-arrestin2 recruitment assay,–
"Cc1ncc2nccn2c1-c1ccc(Oc2nccc3occc23)c(C(F)(F)F)c1 [Compound 18, 4-(4-(6-Methylimidazo[1,2-a]pyrazin-5-yl)-2-(trifluoromethyl)-phenoxy)furo[3,2-c]pyridine]",completely devoid of activity in both the G protein and β-arrestin2 recruitment assays,GS-cAMP accumulation activity in words [2]: completely devoid of activity in both the G protein and β-arrestin2 recruitment assays
"Cc1ncc2nccn2c1-c1cc(F)c(Oc2nccc3occc23)c(F)c1 [Compound 19, 4-(2,6-Difluoro-4-(6-methylimidazo[1,2-a]pyrazin-5-yl)-phenoxy)furo[3,2-c]pyridine]",eliminated β-arrestin2 recruitment activity,–
"FC(F)(F)c1cc(Oc2nccc3occ(C4CC4)c23)ccc1-c1cccc2nccn12 [Compound 44, 3-Cyclopropyl-4-(4-(imidazo[1,2-a]pyridin-5-yl)-3-(trifluoromethyl)phenoxy)furo[3,2-c]pyridine]",abolished β-arrestin2 recruitment,–
"FC(F)(F)c1cc(Oc2cc(N3CCCCC3)ccn2)ccc1-c1cccc2nccn12 [Compound 50, 5-(4-((4-(Piperidin-1-yl)pyridin-2-yl)oxy)-2-(trifluoromethyl)-phenyl)imidazo[1,2-a]pyridine]",inactive in both the GS and β-arrestin2 pathways,GS-cAMP accumulation activity in words [2]: inactive in both the GS and β-arrestin2 pathways
"Cc1cc(Oc2nccc3occc23)ccc1-c1c(C)nc2cnccn12 [Compound 4, 4-(3-Methyl-4-(2-methylimidazo[1,2-a]pyrazin-3-yl)phenoxy)-furo[3,2-c]pyridine]",–,fold reduced potency in the GS-cAMP accumulation assay compared to 1 [2]: 23 fold; fold reduction in potency for β-arrestin2 recruitment compared to 1 ([1]; compared to compound 1): 22 fold
"Cc1cc(Oc2nccc3occc23)ccc1-c1cncc(C(N)=O)c1 [Compound 12, 5-(4-(Furo[3,2-c]pyridin-4-yloxy)-2-methylphenyl)nicotinamide]",inactive in the β-arrestin2 recruitment assay,–
"Cc1cc(Nc2nccc3occc23)ccc1-c1c(C)ncc2nccn12 [Compound 20, N-(3-Methyl-4-(6-methylimidazo[1,2-a]pyrazin-5-yl)phenyl)furo-[3,2-c]pyridin-4-amine]",only minimally active in the β-arrestin2 recruitment assay,–
"FC(F)(F)c1cc(Oc2nccc3ccsc23)ccc1-c1cccc2nccn12 [Compound 46, 7-(4-(Imidazo[1,2-a]pyridin-5-yl)-3-(trifluoromethyl)phenoxy)-thieno[2,3-c]pyridine]",minimal β-arr2 recruitment; also recorded: greatly weakened,–

Structure (SMILES),β-arrestin2 recruitment activity in words [1],further results
"Cc1ncc2nccn2c1-c1ccc(Oc2nccc3occc23)cc1C(F)(F)F [Compound 17, 4-(4-(6-Methylimidazo[1,2-a]pyrazin-5-yl)-3-(trifluoromethyl)-phenoxy)furo[3,2-c]pyridine]",potent full agonist of both signaling pathways,GS-cAMP accumulation activity in words [2]: potent full agonist of both signaling pathways
"Cc1cc(Oc2ccccn2)ccc1-c1c(C)ncc2nccn12 [Compound 33, 6-Methyl-5-(2-methyl-4-(pyridin-2-yloxy)phenyl)imidazo[1,2-a]-pyrazine]",very weak activity in the β-arrestin2 recruitment assay,–
"COC(=O)c1cccn2c(-c3ccc(Oc4nccc5occc45)cc3C)cnc12 [Compound 6, Methyl-3-(4-(furo[3,2-c]pyridin-4-yloxy)-2-methylphenyl)-imidazo[1,2-a]pyridine-8-carboxylate]",no detectable β-arrestin2 recruitment activity,–
"Cc1ncc2nccn2c1-c1ccc(Oc2nccc3occc23)c(C)c1C [Compound 15, 4-(2,3-Dimethyl-4-(6-methylimidazo[1,2-a]pyrazin-5-yl)-phenoxy)furo[3,2-c]pyridine]",inactive in β-arrestin2 recruitment,–
"Fc1cc(-c2cccc3nccn23)cc(F)c1Oc1nccc2occc12 [Compound 43, 4-(2,6-Difluoro-4-(imidazo[1,2-a]pyridin-5-yl)phenoxy)furo[3,2-c]pyridine]",minimal β-arrestin2 recruitment,–
"Cc1cc(Oc2cccc3occc23)ccc1-c1c(C)ncc2nccn12 [Compound 27, 5-(4-(Benzofuran-4-yloxy)-2-methylphenyl)-6-methylimidazo-[1,2-a]pyrazine]",inactivity for β-arrestin2 recruitment,–
"Cc1cc(Oc2nccc3occc23)ccc1-c1nc(N)cnc1C [Compound 7, 6-(4-(Furo[3,2-c]pyridin-4-yloxy)-2-methylphenyl)-5-methylpyrazin-2-amine]",minimal β-arr2 recruitment,–
"Cc1cc(-c2cccc3nccn23)ccc1Oc1nccc2occc12 [Compound 37, 4-(4-(Imidazo[1,2-a]pyridin-5-yl)-2-methylphenoxy)furo[3,2-c]-pyridine]",eliminated β-arrestin2 recruitment activity,–
"Cc1c(Oc2nccc3occc23)ccc(-c2cccc3nccn23)c1C [Compound 38, 4-(4-(Imidazo[1,2-a]pyridin-5-yl)-2,3-dimethylphenoxy)furo[3,2-c]pyridine]",β-arrestin2 recruitment was eliminated,–
"Cc1cc(-c2c(C)ncc3nccn23)ccc1Oc1nccc2occc12 [Compound 14, 4-(2-Methyl-4-(6-methylimidazo[1,2-a]pyrazin-5-yl)phenoxy)-furo[3,2-c]pyridine]",completely eliminated β-arrestin2 recruitment activity,–
"Cc1cc(Oc2nccc3ccccc23)ccc1-c1c(C)ncc2nccn12 [Compound 28, 1-(3-Methyl-4-(6-methylimidazo[1,2-a]pyrazin-5-yl)phenoxy)-isoquinoline]",inactive for β-arrestin2 recruitment,–
"Cc1cc(Oc2nccc3occc23)ccc1-c1c(C)cnnc1C [Compound 9, 4-(4-(3,5-Dimethylpyridazin-4-yl)-3-methylphenoxy)furo[3,2-c]-pyridine]",not active in the β-arrestin2 recruitment assay,EC50 [2]: 1 nM
"FC(F)(F)c1cc(Oc2ccccn2)ccc1-c1cccc2nccn12 [Compound 49, 5-(4-(Pyridin-2-yloxy)-2-(trifluoromethyl)phenyl)imidazo[1,2-a]-pyridine]",no activity in the β-arrestin2 pathway,–
"Cc1cc(Oc2nccc3occ(C4CC4)c23)ccc1-c1c(C)ncc2nccn12 [Compound 26, 3-Cyclopropyl-4-(3-methyl-4-(6-methylimidazo[1,2-a]pyrazin-5-yl)phenoxy)furo[3,2-c]pyridine]",diminished β-arrestin2 recruitment activity,–
"Cc1cc(Oc2nccc3occc23)ccc1-c1cccc2nccn12 [Compound 5, 4-(4-(Imidazo[1,2-a]pyridin-5-yl)-3-methylphenoxy)furo[3,2-c]-pyridine]",–,fold reduced potency in the GS-cAMP accumulation assay compared to 1 [2]: approximately 10 fold
"Cc1cc(Oc2nccc3occc23)ccc1-c1ccc(C#N)cn1 [Compound 13, 6-(4-(Furo[3,2-c]pyridin-4-yloxy)-2-methylphenyl)nicotinonitrile]",inactive in the β-arrestin2 recruitment assay,–
